For data set [1] the following is noted: for calculated hydrolysis rate constant: pH 1.4/37° C., KCl/HCl buffer, sodium salts, pseudo first-order fit.
Experimental: To evaluate chemical stability at pH 1.4, sodium salts of dinucleoside poly(borano)phosphate analogues were dissolved in KCl/HCl buffer (pH 1.4, 0.44 ml) and D2O (0.06 ml). The final pH was then adjusted with HCl and measured with a pH-meter (final concentration 0.016 M). ^31P NMR spectra of Ap3(β-B)A and Up3(β-B)U were recorded during 3 h at 10 min time intervals at 37° C. Number of scans in all experiments was 1200, number of experiments was 17. The hydrolysis rate was determined by measurements of absolute integration of Pα (2.5 ppm) signal as a function of time and was fitted to a pseudo-first-order reaction model.
^31P NMR spectra of Ap5(β-B)A was recorded during 1 h at 10 min time intervals at 37° C. Number of scans in all experiments was 1200, number of experiments was 6. The hydrolysis rate was determined by measurement the absolute intagration of Pβ signal as a function of time and was fitted to a pseudo-first-order reaction model.
Chemical stability under conditions simulating gastric juice (pH 1.4/37° C.) was evaluated with Ap3(β-B)A, 1, Up3(β-B)U, 2, and Ap5(γ-B)A, 3 sodium salts, in KCl/HCl buffer. ^31P NMR spectra was recorded during 3 h at 10 min intervals. […] The intensity changes of the monophosphate ^31P signal with time were fit to a pseudo first-order exponential decay rate equation with respect to 1/2 concentration.
Data set [2] concerns INS-1 cells. The data set can be described thus: Glucose-dependent stimulation of insulin secretion in INS-1 cells. It is filed as cell-based. The note with it: 6 mM glucose. How it is done: Compound 2, sodium salt, was tested for insulinotropic effect on insulin-secreting INS-1 cells (Hohmeier et al., 2000). Briefly, the cells were plated at a density of 2×10^5 in 12-well plates in RPMI with 10% fetal calf serum containing 11 mM glucose and maintained at 37° C. in a humidified atmosphere containing 5% CO2 for 2 days. The medium was removed on the third day post-plating and replaced with RPMI containing 3 mM glucose with 10% fetal calf serum. The cells were incubated for an additional 24 hours at 37° C. in a humidified atmosphere containing 5% CO2. On the fourth day post-plating, the medium was removed and replaced with Krebs-Ringer bicarbonate Hepes buffer (pH 7.4) containing 2 mM glucose. The cells were incubated for 30 min, and then the buffer was removed and replaced with Krebs-Ringer bicarbonate Hepes buffer (pH 7.4) with 6 mM glucose containing the test compound at various concentrations. The cells were incubated for 1 hour. Basal insulin secretion was determined by incubating the cells in the presence of buffer with 2 mM glucose. The presence of glucose at 6 and 10 mM stimulated insulin secretion and served as the reference control and positive control, respectively. A positive stimulatory response by the test compound was taken as the response above that elicited by 6 mM glucose.

Data set [3] concerns Diet-Induced Obesity (DIO) mouse model. The data set can be described thus: Glycemic response of DIO mice in the Oral Glucose Tolerance Test after a single intravenous administration. The format is in vivo. How it is done: C57BL/6 male mice (Charles River Canada, St-Constant, Qc, Canada) were received at 7-8 weeks of age and fed a high fat diet (60% of calories from fat) for 6-8 weeks to induce hyperglycemia and obesity (Surwit et al., 1988). Blood glucose was checked and animals with readings between 200 and 220 mg/dl were included in the study. The animals were randomized based on their body weight and glycemic values, into control and treatment groups (n=6-8). The animals received a single intravenous injection of the test compound one minute prior to the Oral Glucose Tolerance Test (OGTT). The control group received vehicle (saline) alone. Blood samples (one drop) were collected from the tail vein prior to the administration of the test compound and at 5, 10, 20, 30, 60, 90 and 120 minutes post-glucose administration. Whole blood glucose values were determined using a hand-held glucometer (Model OneTouch Ultra, LifeScan). All data are expressed as mean±SEM.
FIG. 2 is an area under the curve (AUC) graph of delta glycemia. It is a representation of the area under the curve of the responses seen during the oral glucose tolerance test challenge. The data are corrected for the baseline blood glucose levels of the individual mice. […] If the area under the curves is integrated, the response can be quantified as represented in the bar graph.

For data set [4], the system named is human islets. The data set can be described thus: Insulin secretion using human islets. It is filed as cell-based. The note with it: 12 mM glucose; 10^−13 and 10^−12 M; 30 minutes at 37° C.; FIG. 3. How it is done:
Islets aliquots were supplemented with 1 ml of medium containing 2.2, 12 or 22 mM glucose, or 22 mM glucose with 3-isobutyl-1-methylxanthine (IBMX) as a positive control, in the presence of various concentration of Up3(β-B)U tri-sodium salt, and incubated for 30 minutes at 37° C. in a humidified atmosphere containing 5% CO2. The medium was then collected for determination of insulin level; islets were collected for determination of protein; and insulin secretion was normalized to total protein. Basal insulin secretion was determined by incubating the islets in the presence of buffer containing 2 mM glucose.
Islets were kept in CMRL 1066 medium containing 5.5 mM glucose for 2-3 days and then washed out with medium containing 2.2 mM glucose. Islet aliquots were supplemented with 1 ml of medium containing 2.2, 12 or 22 mM glucose or 22 mM glucose with 3-isobutyl-1-methylxanthine (IBMX), in the presence or absence of the different secretagogues. The experiments were done in triplicate. Islets were incubated for 30 minutes at 37° C. in a humidified atmosphere containing 5% CO2. After incubation, the medium was collected for determination of insulin level. Quantification of insulin was done in duplicate using human insulin ELISA kit (ALPCO). […] Basal insulin secretion was determined by incubating the islets in the presence of buffer with 2 mM glucose. […]

For data set [5] the following is noted: pH 7.4/37° C., Tris/HCl buffer; for deboranation products: 4 weeks; for decomposition: 4 weeks (one month), sodium salts.
Experimental: Dinucleosides poly(borano)phosphates tri- or penta-sodium salts were dissolved in Tris/HCl buffer (pH 7.4, 0.45 ml), and D2O (0.6 ml). pH 7.4 was then adjusted with HCl and measured with a pH-meter. Final analogue concentration was about 0.02 M. ^31P NMR spectra were recorded during 4 weeks at 3-7 days intervals at 37° C. Percentage of phosphoester hydrolysis of Ap3(β-B)A/Up3(β-B)U is based on absolute integrations of monophosphate signal (2.5 ppm). Percentage of phosphodiester hydrolysis of dinucleoside pentaphosphate is based on absolute integrations of Pα signal of ADP or UDP products.
Thus, ^31P NMR spectra of Up3(β-B)U, 2, and Ap5(β-B)A, 3, tri- and penta-sodium salts, respectively, in Tris/HCl buffer (in H2O), pH 7.4, were recorded during 4 weeks at 1- to 3-day intervals at 37° C.

Like-named read-outs stand apart in the source and are kept apart here.

Take “diadenosine tri(borano)phosphate [compound 1]”: the “calculated hydrolysis rate constant” value in data set [1] is 0.000152 s⁻¹. For the same compound, the “fold less stable than ATP-α-B analogues” value in data set [1] (under gastric juice conditions) stood at 2 fold.

For “diuridine tri(borano)phosphate [compound 2]”, the “insulin secretion versus background” value in data set [2] (1 hour incubation, FIG. 1) is given as “stimulated insulin secretion above background levels”. The “activity on insulin secretion at low concentrations” value in data set [2] (10^−12 and 10^−11 M, activity dropping as the concentration increased) is on record as “active at low concentrations”. Moreover, the “activity on glycemia at low concentration” value in data set [3] (100 ng/kg intravenous, activity dropping as the concentration decreased) is reported as “active at low concentration”. In data set [3] (DIO-mice, intravenous, one minute prior to the glucose challenge, FIG. 2), the “effect on the increase of glycemia (delta glycemia, AUC)” value was “partially inhibited the increase of the glycemia”. The “insulin secretion by human islets” value in data set [4] is “able to promote significant insulin secretion”. For the same compound, the deboranation products entry in data set [5] is “No deboranation products could be detected”. Moreover, the “calculated hydrolysis rate constant” value in data set [1] is 0.000165 s⁻¹.

Consider `BP(=O)(OP(=O)(O)OP(=O)(O)OCC1OC(n2cnc3c(N)ncnc32)C(O)C1O)OP(=O)(O)OP(=O)(O)OCC1OC(n2cnc3c(N)ncnc32)C(O)C1O` (stereo not shown) [compound 3, diadenosine penta(borano)phosphate], for which, in data set [5], the deboranation products entry was “No deboranation products could be detected” and the decomposition entry is on record as “less than 15%”. Further, the decomposition entry in data set [5] (listed as Ap5(γ-B)A) is “less than 10%”. In data set [1] (gastric juice conditions), the “fold less hydrolytically stable compared to Ap3(β-B)A” value is “about 4 fold”.

The values are drawn from patent US7368439B2, “Dinucleoside poly(borano)phosphate derivatives and uses thereof” (BAR - ILAN University, priority 2005, dated 2008).
